According to US20250178051A1, “METHODS OF CONTROLLING MICROBIOLOGICAL PROCESSES FOR IN SITU CONTAMINANT TREATMENT” (priority 2022, published 2025):

Tests used:
[1] = system: Mycobacterium austroafricanum JOB5; assay: TCE cometabolism and biomass production of pure culture after acetylene exposure; type: cell-based; settings: for TCE consumption rate: 5% v/v acetylene, 50 μM TCE
From the text: (§1) Aerobic cometabolism of TCE is a viable methodology for TCE removal in large diffuse contaminant plumes. A pure culture of the known aerobic cometabolic TCE degrader, Mycobacterium austroafricanum JOB5 (formerly known as Mycobacterium vaccae JOB5) and a mixed culture enriched from an uncontaminated soil in mineral medium using propane and oxygen as growth substrates were used to test the efficiency of acetylene in reducing biomass growth rate (e.g., a proxy for bioclogging). The mixed culture was created through serial transfers from the original soil microcosms.
(§2) The pure and mixed cultures were then exposed to 50 μM TCE to verify their capacity to aerobically cometabolically degrade TCE. Once their capability to degrade TCE was verified, both cultures were grown in 2 L bottles and fed oxygen and propane until the optical density at 600 nm stabilized at ˜0.2 for multiple days. Then, the two cultures were exposed to acetylene at 5% v/v for varying lengths of time (no exposure (0), 1, 2, 4 and 8 days). The dissolved acetylene concentration in the 2 L bottles was 2.2 mmol/L.
(§3) After the set acetylene exposure time, culture was extracted, and triplicate bottles were started with 50 μM TCE and a pure oxygen headspace. The cultures were then monitored for propane (residual and added) and oxygen consumption, TCE degradation, carbon dioxide production, biomass production, and pH change.

[2] = system: soil-derived propane-consuming mixed culture; assay: TCE cometabolism and biomass production of mixed culture after acetylene exposure; type: cell-based, mixed culture enriched from an uncontaminated soil; settings: for TCE consumption rate: 5% v/v acetylene, 50 μM TCE
From the text: as §1, §2, §3

[3] = system: Mycobacterium austroafricanum JOB-5 (JOB-5) and a mixed culture, named COMET1; assay: Soil columns with contaminated site soil and groundwater, flow through mode, acetylene-containing groundwater; parameters: species or system Mycobacterium austroafricanum JOB-5 and COMET1 mixed culture; settings: soil columns, propane fed and acetylene inhibited, two three-hour pulses per day at 0.2 mL/min
Experimental: Groundwater was pumped at a 2-Day HRT (0.2 mL/min) from six pumps programmed to automatically turn on and turn off to deliver groundwater of varying chemistries to the soil columns. For the Propane-Fed (pumps 2-3) and the Propane-Fed and Acetylene-Inhibited treatments (pumps 4-6) which had multiple pumps feeding into one line PVC plastic check valves were installed at line splitting locations to avoid backflow to other feeder bags when pumps automatically started or stopped pumping according to the schedule presented in FIG. 5.
Acetylene or propane from a gas tank was bubbled into groundwater in a closed container in the lab. That groundwater was then pumped from closed container to a sealable Tedlar bag. The Tedlar bag was then connected to the pump which was controlled by a timer to deliver two three-hour pulses of acetylene containing groundwater at 0.2 mL/min per day. The pump effectively serves as a seal for the Tedlar bag as the tubing is pinched at one location to create suction.
For propane, 0.5 L of propane was bubbled through 10 L water for at least four hours. That propane-containing water was then pumped into a Tedlar bag. For the treatments which received propane-containing water, the water was pumped into the columns at 0.2 mL/min to 6 hrs/day (two three-hour pulses). For acetylene, 0.5 L of acetylene was bubbled through 10 L water for at least four hours. That acetylene-containing water was then pumped into a Tedlar bag. For the treatments which received acetylene-containing water, the water was pumped into the columns at 0.2 mL/min to 6 hrs/day (two three-hour pulses) […]
Phase I involves bioaugmentation in soil columns in batch mode. […] Batches were continued until either propane was not detected in the groundwater or propane consumption slowed. […]
Phase II involves flow through mode. […] These gas syringes were then analyzed for TCE, propane, and acetylene via gas chromatography with flame ionization detection (GC-FID) and for oxygen and carbon dioxide via assessment of a thermal conductivity detector (TCD). […]

[4] = as acetylene exposure times increased (1-8 days), 5% v/v

## C#C [acetylene]
[1]; [4]
  rate of TCE degradation: decreased
  rate of biomass production (optical density): decreased
[1]; day 1 of acetylene exposure
  TCE consumption rate: 0.42 μmol TCE/(L day)
[1]; day 2 of acetylene exposure
  TCE consumption rate: 0.63 μmol TCE/(L day)
[1]; day 4 of acetylene exposure
  TCE consumption rate: 0.36 μmol TCE/(L day)
[1]; day 8 of acetylene exposure
  TCE consumption rate: 0.07 μmol TCE/(L day)
[2]; [4]
  rate of TCE degradation: decreased
  rate of biomass production (optical density): decreased
[2]; day 1 of acetylene exposure
  TCE consumption rate: 0.45 μmol TCE/(L day)
[2]; day 2 of acetylene exposure
  TCE consumption rate: 0.54 μmol TCE/(L day)
[2]; day 4 of acetylene exposure
  TCE consumption rate: 0.52 μmol TCE/(L day)
[2]; day 8 of acetylene exposure
  TCE consumption rate: 0.25 μmol TCE/(L day)
[3]
  TCE degradation (cumulative TCE removal): slowed
  biomass production (total organic carbon as proxy): slowed
  propane consumption (cumulative): slowed
